Literature values in US8198264B2, “Method for treating head and neck cancer” (National Cancer Center, priority 2006, dated 2012).

Legend:
[1] = system: squamous cell head and neck cancer; conditions: regimen combined with radiotherapy, meta-analysis
[2] = system: advanced/relapsed head and neck cancer; conditions: 5-FU drug alone, continuous intravenous infusion

Compound | odds ratio (add-on effect on survival) [1] | response rate [2]
O=c1[nH]cc(F)c(=O)[nH]1 [5-FU, 5-fluorouracil] | 0.66 | 15%
CO[C@@]12[C@H](COC(N)=O)C3=C(C(=O)C(C)=C(N)C3=O)N1C[C@@H]1N[C@@H]12 [Mitomycin C] | 0.54 | 
Bleomycin | 0.80 | 
